Series [1] relates to direct contact coculture. The series can be described thus: MTT cell viability assay. Particulars: n=6. It is filed as cell-based, human. On the procedure:
Cell viability in the presence of various HEPES concentrations was inferred by the mitochondrial oxidation of 3-(4,5-dimethylthiazol-2-yl)-2,5-diphenyltetrazolium bromide (MTT) dye. The direct contact coculture was plated in a 96-well plate following the same methods as stated above. On Day 7 post hCMEC/D3 plating, media containing HEPES was removed and replaced with 190 μL, fresh media and 10 μL of 5 mg/mL MTT and incubated at 37° C. with 5% CO2 for 4 hours. MTT was then removed and replaced with 200 μL DMSO and left agitating at room temperature for 1 hour. Absorbance at 570 nm was determined using a plate reader. Cell viability was normalized to 10 mM HEPES control. Assays were performed with n=6.

The nature of series [2]: in vitro. Particulars: human.
Series [3] relates to direct-contact triculture of astrocytes, pericytes and hCMEC/D3 cells.
The subject of series [4] is co-culture of astrocytes and pericytes. The series can be described thus: Mannitol permeability across mono- or co-cultures of astrocytes and pericytes. Type of series: in vitro ADME.
Series [5] can be described thus: in vitro. The note with it: human. On the procedure:
(§1) For human astrocyte monocultures, 4×10^4 cells were seeded onto Transwells® coated with 2 μg/cm^2 poly-L-lysine and grown for 9 days prior to permeability studies.
(§2) Before all permeability studies, cells were washed twice with PBS before equilibrating in HBSS for 20 minutes shortly before the study. After study initiation, 100 μL samples were taken at 15, 30, 45, 60, and 90 minute time points. 4 mL of scintillation cocktail was added for analysis by scintillation counting.
The source holds these as a separate data set.

Series [6] can be described thus: Apparent permeability across human astrocyte monoculture. Type of series: in vitro ADME. The note with it: human; astrocytes grown in monoculture. Here is the method:
as §1
(§3) . Before all permeability studies, cells were washed twice with PBS before equilibrating in HBSS for 20 minutes shortly before the study. After study initiation, 100 μL samples were taken at 15, 30, 45, 60, and 90 minute time points. 4 mL of scintillation cocktail was added for analysis by scintillation counting.

Series [7] concerns human astrocyte monolayers. The description is as above. It is filed as in vitro ADME. On the procedure: as §1, §3
Series [8] has as its system hCMEC/D3 monoculture. The series can be described thus: in vitro. On the procedure: as §1, §2
The subject of series [9] is direct contact coculture of human astrocytes and hCMEC/D3 cells.
Series [10] deals with T1, Pgp (Homo sapiens, UniProt P08183).
T1 construct: endogenous in cells; host or cells: hCMEC/D3 monoculture, astrocyte-pericyte coculture and triculture
T1 sequence (P08183 whole entry): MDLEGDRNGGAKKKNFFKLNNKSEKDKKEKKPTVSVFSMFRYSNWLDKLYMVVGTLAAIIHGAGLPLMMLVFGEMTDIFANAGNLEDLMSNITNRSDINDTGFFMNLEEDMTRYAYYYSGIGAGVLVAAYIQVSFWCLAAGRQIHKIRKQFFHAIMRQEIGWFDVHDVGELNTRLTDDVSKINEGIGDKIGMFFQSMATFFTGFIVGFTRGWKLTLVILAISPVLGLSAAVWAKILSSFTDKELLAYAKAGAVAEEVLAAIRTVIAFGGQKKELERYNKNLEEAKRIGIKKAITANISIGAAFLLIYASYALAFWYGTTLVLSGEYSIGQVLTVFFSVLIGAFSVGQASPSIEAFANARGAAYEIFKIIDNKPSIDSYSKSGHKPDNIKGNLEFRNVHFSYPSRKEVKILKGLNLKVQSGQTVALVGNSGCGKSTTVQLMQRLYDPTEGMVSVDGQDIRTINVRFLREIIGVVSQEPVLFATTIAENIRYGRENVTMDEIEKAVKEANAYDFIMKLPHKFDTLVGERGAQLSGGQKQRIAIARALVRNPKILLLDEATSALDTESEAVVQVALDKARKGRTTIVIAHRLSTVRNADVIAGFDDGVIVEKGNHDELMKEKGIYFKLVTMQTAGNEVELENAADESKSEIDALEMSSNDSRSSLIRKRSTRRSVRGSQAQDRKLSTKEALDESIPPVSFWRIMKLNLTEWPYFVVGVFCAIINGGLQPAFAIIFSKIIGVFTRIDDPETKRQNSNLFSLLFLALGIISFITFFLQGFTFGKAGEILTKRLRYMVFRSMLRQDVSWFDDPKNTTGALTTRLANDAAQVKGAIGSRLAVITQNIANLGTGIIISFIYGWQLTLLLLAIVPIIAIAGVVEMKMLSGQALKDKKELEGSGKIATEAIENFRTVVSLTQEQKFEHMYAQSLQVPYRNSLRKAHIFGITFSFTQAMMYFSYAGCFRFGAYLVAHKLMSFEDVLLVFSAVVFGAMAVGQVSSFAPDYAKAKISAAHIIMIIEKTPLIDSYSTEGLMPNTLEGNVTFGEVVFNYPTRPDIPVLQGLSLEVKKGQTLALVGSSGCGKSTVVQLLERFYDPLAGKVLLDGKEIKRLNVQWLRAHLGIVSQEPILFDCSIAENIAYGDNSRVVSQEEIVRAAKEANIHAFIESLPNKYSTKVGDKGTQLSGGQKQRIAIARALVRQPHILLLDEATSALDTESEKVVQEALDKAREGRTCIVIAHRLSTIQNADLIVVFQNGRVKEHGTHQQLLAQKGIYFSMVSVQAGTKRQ
The series can be described thus: Drug-interaction of elacridar and digoxin in BBB culture models. It is filed as cell-based. Particulars: triculture versus hCMEC/D3 monoculture or astrocyte-pericyte co-culture, FIG. 17.

The test system of series [11] is direct-contact triculture of astrocytes, pericytes and hCMEC/D3 cells. The series can be described thus: Permeability across direct-contact triculture BBB model. Particulars: hCMEC/D3 monoculture as control, n=5, FIG. 9.
Series [12] has as its system direct contact coculture of human astrocytes and hCMEC/D3 cells. Briefly: Apparent permeability across direct contact coculture on Transwell. The note with it: for apparent permeability, reproducibility: different passage number.

Like-named read-outs stand apart in the source and are kept apart here.

For the molecule `O=S(=O)(O)CCN1CCN(CCO)CC1` [HEPES, 4-(2-hydroxyethyl)-1-piperazineethanesulfonic acid], the “change in cell viability (MTT)” value in [1] (25 mM HEPES in comparison to 10 mM HEPES control) is −8.2±2.0%; in [1] (50 mM HEPES compared to 10 mM HEPES control) it was −28.4±2.6%.

For `OC[C@@H](O)[C@@H](O)[C@H](O)[C@H](O)CO` [Mannitol], the Papp A→B at 90 min, 0.25 μCi/mL in series [2] (Papp) was determined as 15.2 ± 0.69 ×10⁻⁶ cm/s; in series [2] (apparent permeability), 15.2 ± 0.7 ×10⁻⁶ cm/s. Further, the “decrease in permeability, mono- versus tri-culture” value in series [3] (human, 90 min, 0.25 μCi/mL) is given as 1.5 fold. The effective permeability result in [4] (co-culture of astrocytes and pericytes versus astrocytes monoculture, FIG. 8B, n=6) was “lower in comparison to monoculture of astrocytes”. The apparent permeability result in series [4] (co-culture versus astrocytes or pericytes alone, FIG. 8A) is “lower in the co-culture of astrocytes and pericytes”.

Consider `CC(C)NCC(O)COc1cccc2ccccc12` (stereo not drawn) [Propranolol], for which the Papp A→B at 90 min, 0.25 μCi/mL in series [2] (apparent permeability) is 16.1 ± 0.4 ×10⁻⁶ cm/s; in [5], 19.1 ± 1.9 ×10⁻⁶ cm/s; in series [6], 45.8 ± 4.1 ×10⁻⁶ cm/s. For the same molecule, the “transcellular permeability across the BBB-triculture relative to L-histidine” value in series [3] is on record as “significantly slower than L-histidine”. Besides, the “fold lower permeability in hCMEC/D3 and direct contact coculture than in astrocyte monoculture” value in series [7] is reported as about 3 fold.

As for `Cc1ncc(C[n+]2csc(CCO)c2C)c(N)n1` [Thiamine], the “transcellular permeability across the BBB-triculture relative to L-histidine” value in series [3] is listed as “significantly slower than L-histidine”.

With `NC(N)=O` [Urea], the apparent permeability in [8] is recorded as 2.96±0.11 ×10^−5 cm/s. Also, in series [9], the Papp is 2.43 ± 0.155 ×10^−5 cm/s and the apparent permeability is 2.43±0.15 ×10^−5 cm/s.

Consider `COc1cc2c(cc1OC)CN(CCc1ccc(NC(=O)c3cccc4c(=O)c5cccc(OC)c5[nH]c34)cc1)CC2` [elacridar], for which, in series [10], the “inhibition of Pgp function (digoxin)” value is listed as “more difficult to inhibit Pgp function in the triculture”.

In the case of `CC(=O)O[C@H]1C(=O)[C@@]2(C)[C@H]([C@H](OC(=O)c3ccccc3)[C@]3(O)C[C@H](OC(=O)[C@H](O)[C@@H](NC(=O)c4ccccc4)c4ccccc4)C(C)=C1C3(C)C)[C@]1(OC(C)=O)CO[C@@H]1C[C@@H]2O` [paclitaxel], the “transcellular permeability across the BBB-triculture relative to L-histidine” value in [3] is given as “significantly slower than L-histidine”.

Regarding Inulin, the apparent permeability was 8.46±0.02 ×10^−6 cm/s in [8] (hCMEC/D3 monoculture, n=3) and 7.55±0.3 ×10^−6 cm/s in [12] (direct contact coculture, n=3). In addition, the “decrease in permeability, mono- versus tri-culture” value in series [11] amounted to 8 fold. Besides, the Papp in series [12] (Table 4, values match the direct contact coculture) is listed as 0.754 ± 0.030 ×10^−5 cm/s. The entries for the “apparent permeability, reproducibility” value in series [12] (first additional independent experiment) and in [12] (second additional independent experiment) were 7.51±0.01 ×10^−6 cm/s and 7.94±0.03 ×10^−6 cm/s, respectively.

For the origin of these results see patent publication US10877026B2, “Blood brain barrier models and methods to generate and use the same” (Purdue Research Foundation, priority 2016, dated 2020).
